US20240398783A1, “Compounds and Pharmaceutical Compositions Comprising Inhibitors of Amyloid Peptide Interactions with Glycosaminoglycans, Methods of Treatment and Use Thereof” (Gismo Therapeutics, Inc., priority 2021, published 2024)
Where a name gives a salt, the structure may show the parent alone. Read-outs that look alike come from different tables or passages of the source.

Assays:
[1] = biological target: Alpha-Synuclein Protofibril binding to purified human brain membranes (Homo sapiens, UniProt P37840); test: Inhibition of protofibrillar alpha-synuclein binding to purified human brain cell membranes (ELISA); settings: alpha-synuclein protofibrils
Protocol: (§1) Purified human brain cell membranes were prepared by differential centrifugation as follows. Five grams of frozen human brain postmortem tissue (obtained from University of Kentucky Alzheimer's Disease Center Tissue Bank) was homogenized in 50 ml HEPES-Buffered sucrose (0.32M sucrose, 4 mM HEPES pH7.4, protease inhibitors) with a motor driven glass-teflon homogenizer. After removing nuclear and cell debris by centrifugation of homogenates at 1,000×g for 10 min at 4 degree Celsius, post-nuclear supernatant was centrifuged at 100,000×g for 30 minutes to yield the crude membrane pellet. Crude membrane pellet was re-suspended in 0.32M sucrose, then centrifuged again at 100,000×g for 30 minutes to yield washed membrane pellet. Membrane pellet was resuspended in sterile PBS (pH7.4), quickly frozen, and kept in aliquots at −80 degrees Celsius. This preparation contains human brain cell membranes. Protein concentration was measured with BCA protein assay kit (Pierce Cat. No. 23227). Purified brain membranes were diluted to 0.01 mg/ml in PBS (pH 7.4) and then added to a 96 well polystyrene ELISA plate (NUNC Cat. No. 449824; 100 μl per well). Plates were incubated Over Night (ON) at 4 degrees Celsius. Following the incubation, the plate was washed consecutively, by immersion, with de-ionized water and PBS (pH 7.4). The ELISA plate was then blocked with nonfat milk (2%, 200 μl per well) for 2 hours at Room Temperature (RT). Following blocking, the plate was washed with de-ionized water then PBS (pH 7.4). GBAPs were dissolved and diluted in PBS (pH 6.5, supplemented with 0.1% BSA) at desired concentrations, added to the ELISA plates coated with brain membranes (100 μl per well) and incubated for 2 hours at RT with gentle shaking. Following incubation, the plate was washed with de-ionized water and three times with PBS (pH 6.5) plus Tween. Bound GBAP was detected by a monoclonal antibody specific for that GBAP, followed by incubation with secondary antibody conjugated to horseradish peroxidase (HRP). Antibody was diluted in PBS (pH6.5 supplemented with 1% BSA). Following each incubation with antibody, the plate was washed with de-ionized water and three times with PBS (pH6.5) wash buffer containing 0.1% Tween. The peroxidase substrate chromogen, TMB (Dako Cat. No. S1599) was added (100 μl per well) to the ELISA plate and incubated at room temperature. After 5 minutes ELISA Stop Solution (hydrochloric acid 1N, sulfuric acid 3N) was added (100 μl per well) to stop the peroxidase catalyzed colorimetric reaction. The Optical Density of the samples was measured at 450 nm using an ELISA plate reader (BioTek Synergy H1). Following color development, the % inhibition compared to control was determined. IC-50s were calculated using GraphPad Prism software.
The assay was performed as described in Example 49, with the following modifications. Following to coating the plates with human brain membranes, plates were washed as described. The compounds were dissolved in DMSO at 10 mM final concentration and further diluted prior to assay. DMSO concentration in the screening well was up to 2%. Individual compounds were co-incubated with alpha-synuclein on plates coated with brain membranes. Protofibrillar Alpha-synuclein were prepared as described in Example 45. Protofibrillar Alpha-synuclein diluted in PBS (pH 6.5, supplemented with BSA, 0.1%) was added to the ELISA plate (100 μl per well) and incubated for 2 hours at RT with gentle shaking. Following the incubation, the plate was washed with de-ionized water and three times with PBS (pH 6.5) plus Tween. Bound alpha-synuclein was detected by Anti-Alpha-synuclein Monoclonal Antibody 211 (Santa Cruz Cat. No. sc-12767), followed by secondary anti-IgG antibody conjugated to HRP (R&D System, Cat. No. HAF007). Following to color development with TMB, as described in Example 49, the Optical Density of the samples was measured at 450 nm using an ELISA plate reader. […]

[2] = biological target: TDP-43 binding to purified human brain membranes (Homo sapiens, UniProt Q13148); test: Inhibition of TDP-43 binding to purified human brain cell membranes (ELISA); settings: TDP-43, purified human brain membranes
TDP-43 binding to purified human brain membranes, sequence (Q13148 whole entry): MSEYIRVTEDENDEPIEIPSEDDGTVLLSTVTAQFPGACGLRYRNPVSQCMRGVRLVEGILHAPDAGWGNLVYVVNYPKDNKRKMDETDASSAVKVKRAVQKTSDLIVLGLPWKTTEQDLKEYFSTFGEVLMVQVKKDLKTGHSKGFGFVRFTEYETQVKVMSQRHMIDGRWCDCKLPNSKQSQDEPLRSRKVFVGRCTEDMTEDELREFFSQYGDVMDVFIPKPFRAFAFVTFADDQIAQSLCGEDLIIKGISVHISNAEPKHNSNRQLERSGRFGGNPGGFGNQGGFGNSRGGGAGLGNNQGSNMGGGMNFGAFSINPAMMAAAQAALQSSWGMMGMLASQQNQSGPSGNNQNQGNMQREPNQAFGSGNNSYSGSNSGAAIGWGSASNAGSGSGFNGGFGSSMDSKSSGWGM
Protocol: as §1
The assay was performed as described in Example 49, with the following modifications. Following to coating the plates with purified human brain cell membranes, plates were washed as described. The compounds were dissolved in DMSO at 10 mM final concentration and further diluted prior to assay. DMSO concentration in the screening well was up to 2%. Individual compounds were co-incubated with TDP-43 on plates coated with brain membranes. TDP43 from R&D System (Cat. No. AP-190) was quickly frozen and kept in aliquots at −80 degrees Celsius. TDP-43 dissolved in PBS (pH 6.5, supplemented with BSA, 0.1%) was added to the ELISA plate (100 μl per well) and incubated for 2 hours at RT with gentle shaking. Following the incubation, the plate was washed with de-ionized water and three times with PBS (pH 6.5) plus Tween. Bound TDP-43 was detected by Anti-TDP43 Monoclonal Antibody (R&D System Cat. No. MAB7778), followed by secondary anti-IgG antibody conjugated to HRP (R&D System, Cat. No. HAF007). Following to color development with TMB, as described in Example 49, the Optical Density of the samples was measured at 450 nm using an ELISA plate reader. […]

[3] = read-out: Alpha-Synuclein/Membrane Activity (IC-50)
[4] = read-out: TDP43/Membrane Activity (IC-50)
[5] = Alpha-Synuclein/Membrane Activity (IC-50)
[6] = TDP43/Membrane Activity (IC-50)

| SMILES | IC50 [1, 3] | IC50 [2, 4] | IC50 [1, 5] | IC50 [2, 6] |
| --- | --- | --- | --- | --- |
| C/C(=N\Nc1ncnc2cc(F)ccc12)c1ccc(-n2cnc(C)c2C)nc1 [Compound 21, (E)-4-(2-(1-(6-(4,5-dimethyl-1H-imidazol-1-yl)pyridin-3-yl)ethylidene)hydrazineyl)-7-fluoroquinazoline] | 1.8 µM | 7.12 µM |  |  |
| Cc1ncn(-c2ccc(/C=N\Nc3ncnc4cc(Cl)ccc34)cn2)c1C [Compound 15, 7-chloro-4-(2-((6-(4,5-dimethyl-1H-imidazol-1-yl)pyridin-3-yl)methylene)hydrazineyl)quinazoline hydrochloride] |  |  | 3.06 µM | 3.01 µM |
| C/C(=N\Nc1ncnc2cc(Cl)ccc12)c1ccc(-n2cc(C)nc2C)nc1 [Compound 27, (E)-7-chloro-4-(2-(1-(6-(2,4-dimethyl-1H-imidazol-1-yl)pyridin-3-yl)ethylidene)hydrazineyl)quinazoline hydrochloride] | 7.31 µM | 2.98 µM |  |  |
| Clc1ccc2c(N/N=C/c3ccc(-n4ccnc4)cc3)ccnc2c1 [Compound 38, 4-(2-(4-(1H-imidazol-1-yl)benzylidene)hydrazineyl)-7-chloroquinoline dihydrochloride] |  |  | 2.79 µM | 6.17 µM |
| Clc1ccc2c(Nc3ccc(-n4ccnc4)nc3)ncnc2c1 [Compound 41, N-(6-(1H-imidazol-1-yl)pyridin-3-yl)-7-chloroquinazolin-4-amine] | 5.8 µM | 8.32 µM |  |  |
| CC(=NNc1ncnc2cc(Cl)ccc12)c1ccnc(-n2cnc(C)c2C)c1 [Compound 28, 7-chloro-4-(2-(1-(2-(4,5-dimethyl-1H-imidazol-1-yl)pyridin-4-yl)ethylidene)hydrazineyl)quinazoline] | 3.17 µM | 8.93 µM |  |  |
| Clc1ccc2c(Nc3ccc(-n4cncn4)nc3)ncnc2c1 [Compound 34, N-(6-(1H-1,2,4-triazol-1-yl)pyridin-3-yl)-7-chloroquinazolin-4-amine phosphoric acid salt] |  |  | 4.38 µM | 3.67 µM |
| CC(=NNc1ccnc2cc(Cl)ccc12)c1ccc(-n2cnc(C)c2C)nc1 [Compound 22, 7-chloro-4-(2-(1-(6-(4,5-dimethyl-1H-imidazol-1-yl)pyridin-3-yl)ethylidene)hydrazineyl)quinoline] |  |  | 10.6 µM | 12.2 µM |
| Clc1ccc2c(N/N=C/c3ccc(-n4cccn4)cc3)ccnc2c1 [Compound 3, (E)-4-((E)-(4-(1H-pyrazol-1-yl)benzylidene)hydrazono)-7-chloro-1,4-dihydroquinoline] |  |  | 7.34 µM | 6.57 µM |
| C/C(=N\Nc1ncnc2cc(Cl)ccc12)c1ccc(-n2cnc(C)c2C)nc1 [Compound 16, 7-chloro-4-(2-(1-(6-(4,5-dimethyl-1H-imidazol-1-yl)pyridin-3-yl)ethylidene)hydrazineyl)quinazoline phosphate] |  |  | 3.25 µM | 2.11 µM |
| Clc1ccc2c(N/N=C/c3ccc(-n4ccnc4)nc3)ccnc2c1 [Compound 14, (E)-4-(2-((6-(1H-imidazol-1-yl)pyridin-3-yl)methylene)hydrazineyl)-7-chloroquinoline hydrochloride] |  |  | 6.51 µM | 4.01 µM |
| C/C(=N\Nc1ncnc2cc(Cl)ccc12)c1ccc(-n2cc(C)nc2C)nc1 [Compound 18, (E)-7-chloro-4-(2-(1-(6-(2,4-dimethyl-1H-imidazol-1-yl)pyridin-3-yl)ethylidene)hydrazineyl)quinazoline phosphoric acid salt] | 3.73 µM | 9.28 µM |  |  |
| Cc1cc(-n2ccnc2)ccc1/C=N/Nc1ccnc2cc(Cl)ccc12 [Compound 1, (E)-4-((E)-(4-(1H-imidazol-1-yl)-2-methylbenzylidene)hydrazono)-7-chloro-1,4-dihydroquinoline] | 10.1 µM | 3.42 µM |  |  |
